Assay results from US7153676B1, “Transacylases of the paclitaxel biosynthetic pathway” (priority 1999, dated 2006).
Several values for one entry are separate records, joined by “and”; a condition that tells them apart may be missing. Identical values can stand only once.

How the values were obtained:
[1] = system: acetyl CoA:taxadien-5α-ol O-acetyl transacylase; conditions: cited from earlier work; for Km: cosubstrate of the taxadienol acetyl transacylase; for acetylation by the enzyme (substrate selectivity): more advanced paclitaxel precursors
[2] = molecular target: T1, 10-deacetylbaccatin III-10-O-acetyl transferase (TAX6) (Taxus cuspidata, UniProt Q9M6E2); format: biochemical; conditions: for conversion/acetylation of substrate by TAX6: 10-hydroxyl of 10-deacetylbaccatin III, 5α-hydroxyl of taxadienol
T1 construct: to amplify the putative full-length acetyl transferase gene and incorporate NdeI and XbaI restriction sites; made in house; host or cells: E. coli JM109 (pCWori+)
T1 sequence (Q9M6E2 1-440): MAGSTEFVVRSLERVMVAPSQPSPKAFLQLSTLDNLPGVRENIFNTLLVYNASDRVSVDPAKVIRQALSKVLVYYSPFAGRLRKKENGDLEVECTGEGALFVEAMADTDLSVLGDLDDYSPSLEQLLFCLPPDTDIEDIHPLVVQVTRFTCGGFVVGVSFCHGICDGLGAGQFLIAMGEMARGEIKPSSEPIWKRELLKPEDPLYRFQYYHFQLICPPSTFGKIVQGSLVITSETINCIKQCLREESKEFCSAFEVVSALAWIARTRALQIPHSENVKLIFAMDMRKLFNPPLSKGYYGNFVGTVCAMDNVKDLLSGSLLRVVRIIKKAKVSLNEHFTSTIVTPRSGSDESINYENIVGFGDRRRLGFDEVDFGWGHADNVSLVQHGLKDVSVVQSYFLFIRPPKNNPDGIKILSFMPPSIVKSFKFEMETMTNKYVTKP
Procedure: For the enzyme preparation, E. coli cells transformed with the pCWori+ vector harboring the putative DBAT gene were grown overnight at 37° C. in 5 mL Luria-Bertani medium supplemented with ampicillin, and 1 mL of this inoculum was added to and grown in 100 mL Terrific Broth culture medium (6 g bacto-tryptone, Difco Laboratories, Spark, Md., 12 g yeast extract, EM Science, Cherryhill, N.J., and 2 mL gycerol in 500 mL water) supplemented with 1 mM IPTG, 1 mM thiamine HCl and 50 μg ampicillin/mL. After 24 hours, the bacteria were harvested by centrifugation, resuspended in 20 mL of assay buffer (25 mM Mopso, pH 7.4) and then disrupted by sonication at 0–4° C. The resulting homogenate was centrifuged at 15,000 g to remove debris, and a 1 mL aliquot of the supernatant was incubated with 10-deacetylbaccatin III (400 μM) and [2-^3H]acetyl coenzyme A (0.45μCi, 400 μM) for 1 hour at 31° C. The reaction mixture was extracted with ether and the solvent concentrated in vacuo. The crude product (pooled from five such assays) was purified by silica gel thin-layer chromatography (TLC; 70:30 ethyl acetate:hexane).
The activity of TAX6 (SEQ ID NO: 45) was assayed under standard conditions described in Walker et al., Arch. Biochem. Biophys.

## CC(C)(COP(=O)(O)OP(=O)(O)OC[C@H]1O[C@@H](n2cnc3c(N)ncnc32)[C@H](O)[C@@H]1OP(=O)(O)O)[C@@H](O)C(=O)NCCC(=O)NCCS [Co-enzyme A]
[1]
  inhibition of the enzyme: only weakly inhibited

## CC(=O)SCCNC(=O)CCNC(=O)[C@H](O)C(C)(C)COP(=O)(O)OP(=O)(O)OC[C@H]1O[C@@H](n2cnc3c(N)ncnc32)[C@H](O)[C@@H]1OP(=O)(O)O [acetyl CoA]
[1]
  Km: 5.5 µM and 6 µM

## C=C1[C@H]2C[C@@H]3CCC(C)=C(CC[C@]2(C)CC[C@@H]1O)C3(C)C [taxadienol, taxa-4(20),11(12)-dien-5α-ol]
[2]
  conversion/acetylation of substrate by TAX6: nor does it acetylate
[1]
  Km: 4.2 µM and 4 µM

## CC(=O)O[C@H]1C(=O)[C@@]2(C)[C@H]([C@H](OC(=O)c3ccccc3)[C@]3(O)C[C@H](O)C(C)=C1C3(C)C)[C@]1(OC(C)=O)CO[C@@H]1C[C@@H]2O [baccatin III]
[1]
  acetylation by the enzyme (substrate selectivity): does not acetylate

## CC(=O)O[C@@]12CO[C@@H]1C[C@H](O)[C@@]1(C)C(=O)[C@H](O)C3=C(C)[C@@H](O)C[C@@](O)([C@@H](OC(=O)c4ccccc4)[C@H]21)C3(C)C [10-deacetylbaccatin III]
[2]
  Km: 10 µM
  conversion/acetylation of substrate by TAX6: catalyze the conversion
[2]; regioselectivity
  acetylation of the 1β-, 7β-, or 13α-hydroxyl groups by TAX6: does not acetylate
[1]
  acetylation by the enzyme (substrate selectivity): does not acetylate
